Test results reported in patent US11912723B2, “KRAS modulators and uses thereof” (Quanta Therapeutics, Inc., priority 2022, dated 2024).

Columns and labels:
[1] = biological target: T1, GST-tagged KRAS G12D (2-169) (Homo sapiens, UniProt P01116, G12D); assay: Nucleotide exchange assay (NEA), HTRF of SOS-mediated GTP-DY-647P1 binding; format: biochemical; conditions: 5 nM GST-KRAS G12D, 20 nM SOScat, 150 nM GTP; compound 1 h at RT
T1 construct: GST-tagged KRAS^G12D (2-169, Reaction Biology, MSC-11-539); purchased Reaction Biology MSC-11-539 (KRAS G12D); MSC-11-502 (SOS1cat)
Procedure, shortened: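 After 1 h RT preincubation of compound with KRAS, SOS1cat (20 nM final) and fluorescent GTP analog (150 nM) were added to 5 nM KRAS; HTRF (anti-GST Tb donor) followed at RT for up to 90 min. % inhibition relative to DMSO and no-SOS1 blank, 4-parameter curve fit.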

[2] = system: AGS (KRAS G12D) cells, phospho-ERK; assay: pERK In Cell Western (ICW) assay (Method B); format: cell-based; conditions: Homo sapiens, 3 hours
Protocol: pERK ICW is a high throughput screening assay to evaluate the cellular potency of mutant KRAS small molecule inhibitors. KRAS mutant cell line AGS (KRAS^G12D) were purchased from ATCC and maintained in DMEM and RPMI medium supplemented with 10% fetal bovine serum and Penicillin/Streptomycin.
Cells grown in exponential phase were trypsinized, resuspended in fresh media, and viable cells were counted using a cell counter with Trypan Blue (BioRad TC20). Cells were seeded into 384-well plate (Greiner 781091) at density of 5,000 cells/well for AGS and allowed to grow overnight in a 37° C. CO2 incubator. The next day, compounds were dispensed into wells with a ½ log, 10-point serial dilution and top concentration of 10 μM using Tecan D300e dispenser and incubated for 3 hours in a 37° C. CO2 incubator. Cells were then fixed with paraformaldehyde (Electron Microscopy Sciences, 15710, 4% final concentration) for 30 min, permeabilized with wash buffer (1×PBS+0.1% Triton X-100) for 30 min and blocked with Odyssey blocking buffer (Li—COR 927-70001) for 1 hour, all at room temperature (RT). Phospho-ERK antibody (CST 4370L) was diluted 1:500 in Odyssey blocking+0.2% Tween 20 and incubated with cells overnight at 4° C. The next day, plates were washed 5× with wash buffer, incubated with IRDye 800 CW, Goat anti-Rabbit secondary antibody (Li—COR 926-32211, 1:500) and DRAQ5 (CST 4084L, 1:5,000) diluted in Odyssey blocking+0.2% Tween 20 for 1 hour, washed 5×, and imaged on an Odyssey CLx imaging system.
For data analysis, signal intensities from 800 (phosphor-ERK) and 700 (DRAQ5) channels were extracted, and phospho-ERK signals were normalized to DRAQ5 signals for each well and percent of DMSO control values were computed. Data were then imported into Graphpad Prism to compute half-maximal inhibitory concentrations (IC50) using a 4-parameter variable slope model. Z-factor for each plate was computed from signals derived from wells treated with either DMSO or 5 μM of Trametinib. AGS pERK ICW (Method B) IC50 (uM) values of selected compounds are depicted in Table 2 with compounds having a value 0.001 uM to 0.01 uM as ++++; >0.01 uM to 0.1 uM as +++; >0.1 uM to 1 uM as ++; 1 uM to 10 uM as + and >10 uM as NA.

KRAS G12D/RAF1 = biological target: T2, KRAS G12D/RAF1 (Homo sapiens, UniProt P01116, G12D); assay: Protein-protein interaction (PPI) HTRF assay KRAS G12D/RAF1; format: binding; conditions: KRAS G12D/RAF1, GppNHp-loaded KRAS; 30 minutes pre-incubation
T2 construct: KRAS (1-169) proteins were expressed in E. coli at 18° C; His6-MBP (N, cleaved yes); made in house; host or cells: E. coli
Procedure, shortened: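 IC50 values come from the 665/615 HTRF ratio, scaled between no-compound (0% inhibition) and untagged RAF1 (100%). GppNHp-exchanged, biotinylated RAS (1-169) solution at 16 nM met compound for 30 min at room temperature. Then 16 nM His-tagged RAF1 (52-131) donor solution was added and incubated 1 h.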

Compound	IC50 [1] [µM]	IC50 [2] [µM]	IC50 (KRAS G12D/RAF1) [µM]
Oc1ccc(Cl)c2c1C1(CC2)Cc2nc(OC[C@@]34CCCN3C[C@H](F)C4)nc(N3CCCCCC3)c2CO1 (mixture of isomers) [Compound 9, 4-(azepan-1-yl)-7′-chloro-2-[[rac-(2R,8S)-2-fluoro-1,2,3,5,6,7-hexahydropyrrolizin-8-yl]methoxy]spiro[5,8-dihydropyrano[4,3-d]pyrimidine-7,3′-indane]-4′-ol]	1 to 20	1 to 10	–
CN(C)C(=O)c1cc2n(n1)CCCN(c1nc(OC[C@@]34CCCN3C[C@H](F)C4)nc3c1COC1(CCc4ccc(OC(F)F)cc41)C3)C2 (mixture of isomers) [Compound 41, 5-[6′-(difluoromethoxy)-2-[[rac-(2R,8S)-2-fluoro-1,2,3,5,6,7-hexahydropyrrolizin-8-yl]methoxy]spiro[5,8-dihydropyrano[4,3-d]pyrimidine-7,1′-indane]-4-yl]-N,N-dimethyl-4,6,7,8-tetrahydropyrazolo[1,5-a][1,4]diazepine-2-carboxamide]	1 to 20	> 10	–
CN(C)C(=O)c1cc2n(n1)CCCN(c1nc(OC[C@@]34CCCN3C[C@H](F)C4)nc3c1COC1(CCc4c(OC(F)F)cccc41)C3)C2 (mixture of isomers) [Compound 48, 5-[4′-(difluoromethoxy)-2-[[rac-(2R,8S)-2-fluoro-1,2,3,5,6,7-hexahydropyrrolizin-8-yl]methoxy]spiro[5,8-dihydropyrano[4,3-d]pyrimidine-7,1′-indane]-4-yl]-N,N-dimethyl-4,6,7,8-tetrahydropyrazolo[1,5-a][1,4]diazepine-2-carboxamide]	1 to 20	> 10	–
CN(C)C(=O)c1cc2n(n1)CCCN(c1nc(OC[C@@]34CCCN3C[C@H](F)C4)nc3c1CN(C)[C@]1(CCCc4ccc(O)cc41)C3)C2 [Compound 39B, 5-[(7R)-2-[[(2R,8S)-2-fluoro-1,2,3,5,6,7-hexahydropyrrolizin-8-yl]methoxy]-7′-hydroxy-6-methyl-spiro[5,8-dihydropyrido[4,3-d]pyrimidine-7,1′-tetralin]-4-yl]-N,N-dimethyl-4,6,7,8-tetrahydropyrazolo[1,5-a][1,4]diazepine-2-carboxamide]	1 to 20	> 10	–
CN1Cc2c(nc(OC[C@@]34CCCN3C[C@H](F)C4)nc2N2CCC[C@]3(C2)NC(=O)NC3=O)C[C@]12CCc1cccc(F)c12 [Compound 66, (5R)-9-[(7S)-7′-fluoro-2-[[(2R,8S)-2-fluoro-1,2,3,5,6,7-hexahydropyrrolizin-8-yl]methoxy]-6-methyl-spiro[5,8-dihydropyrido[4,3-d]pyrimidine-7,1′-indane]-4-yl]-1,3,9-triazaspiro[4.5]decane-2,4-dione]	0.01 to 0.1	> 10	–
CN1Cc2c(nc(OC[C@@]34CCCN3C[C@H](F)C4)nc2N2CCC[C@]3(C2)NC(=O)NC3=O)C[C@]12CCc1c(F)ccc(F)c12 [Compound 67, (5R)-9-[(7S)-4′,7′-difluoro-2-[[(2R,8S)-2-fluoro-1,2,3,5,6,7-hexahydropyrrolizin-8-yl]methoxy]-6-methyl-spiro[5,8-dihydropyrido[4,3-d]pyrimidine-7,1′-indane]-4-yl]-1,3,9-triazaspiro[4.5]decane-2,4-dione]	0.01 to 0.1	> 10	–
CN1Cc2c(nc(OC[C@@]34CCCN3C[C@H](F)C4)nc2N2CCn3cncc3C2)C[C@]12CCCc1ccccc12 [Compound 91, (7S)-4-(6,8-dihydro-5H-imidazo[1,5-a]pyrazin-7-yl)-2-[[(2R,8S)-2-fluoro-1,2,3,5,6,7-hexahydropyrrolizin-8-yl]methoxy]-6-methyl-spiro[5,8-dihydropyrido[4,3-d]pyrimidine-7,1′-tetralin]]	1 to 20	–	> 100
CN1Cc2c(nc(OC[C@@]34CCCN3C[C@H](F)C4)nc2N2CCCn3nc(-c4cccc(O)n4)cc3C2)C[C@]12CCCc1ccccc12 [Compound 92, 6-[5-[(7S)-2-[[(2R,8S)-2-fluoro-1,2,3,5,6,7-hexahydropyrrolizin-8-yl]methoxy]-6-methyl-spiro[5,8-dihydropyrido[4,3-d]pyrimidine-7,1′-tetralin]-4-yl]-4,6,7,8-tetrahydropyrazolo[1,5-a][1,4]diazepin-2-yl]pyridin-2-ol]	0.1 to 1	–	> 100
CN1Cc2c(nc(OC[C@@]34CCCN3C[C@H](F)C4)nc2N2CCCn3nc(-c4ccccn4)c(Cl)c3C2)C[C@]12CCCc1ccccc12 [Compound 93, (7S)-4-[3-chloro-2-(2-pyridyl)-4,6,7,8-tetrahydropyrazolo[1,5-a][1,4]diazepin-5-yl]-2-[[(2R,8S)-2-fluoro-1,2,3,5,6,7-hexahydropyrrolizin-8-yl]methoxy]-6-methyl-spiro[5,8-dihydropyrido[4,3-d]pyrimidine-7,1′-tetralin]]	< 0.01	–	10 to 100
C[C@@H]1Cn2cncc2CN1c1nc(OC[C@@]23CCCN2C[C@H](F)C3)nc2c1CN(C)[C@@]1(CCCc3ccccc31)C2 [Compound 94, (7S)-2-[[(2R,8S)-2-fluoro-1,2,3,5,6,7-hexahydropyrrolizin-8-yl]methoxy]-6-methyl-4-[(6R)-6-methyl-6,8-dihydro-5H-imidazo[1,5-a]pyrazin-7-yl]spiro[5,8-dihydropyrido[4,3-d]pyrimidine-7,1′-tetralin]]	1 to 20	–	> 100
CN(C)C(=O)c1nn2c(c1Cl)CN(c1nc(OCC3(CN4CCOCC4)CC3)nc3c1CN(C)[C@@]1(CCCc4ccccc41)C3)CCC2 [Compound 95, 3-chloro-N,N-dimethyl-5-[(7S)-6-methyl-2-[[1-(morpholinomethyl)cyclopropyl]methoxy]spiro[5,8-dihydropyrido[4,3-d]pyrimidine-7,1′-tetralin]-4-yl]-4,6,7,8-tetrahydropyrazolo[1,5-a][1,4]diazepine-2-carboxamide]	< 0.01	–	> 100
CN1Cc2c(nc(OC[C@@]34CCCN3C[C@H](F)C4)nc2N2CCCn3nc(CC#N)c(Cl)c3C2)C[C@]12CCCc1ccccc12 [Compound 98, 2-[3-chloro-5-[(7S)-2-[[(2R,8S)-2-fluoro-1,2,3,5,6,7-hexahydropyrrolizin-8-yl]methoxy]-6-methyl-spiro[5,8-dihydropyrido[4,3-d]pyrimidine-7,1′-tetralin]-4-yl]-4,6,7,8-tetrahydropyrazolo[1,5-a][1,4]diazepin-2-yl]acetonitrile]	< 0.01	–	> 100
CCN1Cc2c(nc(OC[C@@]34CCCN3C[C@H](F)C4)nc2N2CCCn3nc(C(=O)N(C)C)c(Cl)c3C2)C[C@]12CCCc1ccccc12 [Compound 100, 3-chloro-5-[(7S)-6-ethyl-2-[[(2R,8S)-2-fluoro-1,2,3,5,6,7-hexahydropyrrolizin-8-yl]methoxy]spiro[5,8-dihydropyrido[4,3-d]pyrimidine-7,1′-tetralin]-4-yl]-N,N-dimethyl-4,6,7,8-tetrahydropyrazolo[1,5-a][1,4]diazepine-2-carboxamide]	0.01 to 0.1	–	> 100
[5-[(7S)-4′-chloro-2-[[(2R,8S)-2-fluoro-1,2,3,5,6,7-hexahydropyrrolizin-8-yl]methoxy]spiro[5,8-dihydropyrano[4,3-d]pyrimidine-7,1′-indane]-4-yl]-4,6,7,8-tetrahydropyrazolo[1,5-a][1,4]diazepin-2-yl]-pyrrolidin-1-yl-methanone [Compound 34]	< 0.01	–	> 100
